One assay has as its target T1, human RORγ (Homo sapiens, UniProt P51449).
T1 construct: human, NM_005060.3 and from Ser253 to Lys518; expressed in transfected cells; host or cells: CHO cells (transient co-transfection with pG5-Luc reporter)
T1 sequence (P51449 253-518): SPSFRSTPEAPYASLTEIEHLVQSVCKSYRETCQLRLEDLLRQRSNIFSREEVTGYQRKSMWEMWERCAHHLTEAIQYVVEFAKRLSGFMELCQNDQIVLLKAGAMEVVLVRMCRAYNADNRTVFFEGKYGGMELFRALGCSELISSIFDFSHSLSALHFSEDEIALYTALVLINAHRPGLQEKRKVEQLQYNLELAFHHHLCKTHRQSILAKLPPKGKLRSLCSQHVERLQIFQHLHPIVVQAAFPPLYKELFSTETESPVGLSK
The assay is described as follows: Luciferase reporter gene assay of inhibitory effect against RORγ transcriptional activity (GAL4-hRORγ plasmid in CHO cells). The class given is cell-based. Particulars: read-out: LUC EC50 (μM) hRORg. (In general: In a reporter assay the amount or activity of a reporter protein is the signal.)

The target in a further assay is T2, mouse RORγ (Mus musculus, UniProt P51450).
T2 construct: mouse, NM_011281.2 and from Ile251 to Lys516; expressed in transfected cells; host or cells: CHO cells (transient co-transfection with pG5-Luc reporter)
T2 sequence (P51450 251-516): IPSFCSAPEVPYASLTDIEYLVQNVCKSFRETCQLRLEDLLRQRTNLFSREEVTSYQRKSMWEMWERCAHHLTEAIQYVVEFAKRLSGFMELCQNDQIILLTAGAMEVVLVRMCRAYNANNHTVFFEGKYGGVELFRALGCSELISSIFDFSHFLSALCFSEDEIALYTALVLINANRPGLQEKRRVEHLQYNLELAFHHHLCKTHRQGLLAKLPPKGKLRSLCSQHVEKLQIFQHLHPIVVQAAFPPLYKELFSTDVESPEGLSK
The assay is described as follows: Luciferase reporter gene assay of inhibitory effect against RORγ transcriptional activity (GAL4-mRORγ plasmid in CHO cells). The class given is cell-based. Particulars: read-out: LUC EC50 (μM) mRORg. In outline: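 Readout is intracellular luciferase after 2-day compound exposure (8 concentrations, 0.1% DMSO) in CHO cells expressing GAL4 fused to mouse RORγ LBD residues Ile251–Lys516 plus pG5-Luc reporter. EC50 fitted from %-of-control; points showing resazurin-detected cytotoxicity dropped.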

This is an account of results in US20160137639A1, “TRIAZOLE-ISOXAZOLE COMPOUND AND MEDICAL USE THEREOF” (JAPAN TOBACCO INC., priority 2012, published 2016).

By EC50 is commonly meant the concentration needed to bring the measured effect to its halfway point.

Where only a bound is given, the exact number is not on record here.

For `Cc1cccc(NC(=O)CCc2nnc(CCC(C)C)n2C2CC2)c1C` [Example F-78], the EC50 is greater than 3 µM at human RORγ and less than 3 µM at mouse RORγ.
The corresponding values for `Cc1ccc(NC(=O)CCc2nnc(CCC(C)C)n2C2CC2)c(C)c1` [Example F-79] are greater than 3 µM and greater than 3 µM.
As to `Cc1cccnc1NC(=O)CCc1nnc(CCC(C)C)n1C1CC1` [Example F-80], the EC50 on human RORγ and at mouse RORγ was greater than 3 µM throughout.
In the case of `CC(C)CCc1nnc(CCC(=O)Nc2cccc3ccccc23)n1C1CC1` [Example F-81], the EC50 on human RORγ and at mouse RORγ was less than 3 µM in each case.
In the case of `COc1ccc(NC(=O)CCc2nnc(CCC(C)C)n2C2CC2)c(C)c1` [Example F-82], the EC50 on human RORγ and on mouse RORγ was greater than 3 µM each time.
In the case of `Cc1c(Br)cccc1NC(=O)CCc1nnc(CCC(C)C)n1C1CC1` [Example F-84], the EC50 at human RORγ and on mouse RORγ was less than 3 µM in each case.
As to `COc1cccc(NC(=O)CCc2nnc(CCC(C)C)n2C2CC2)c1C` [Example F-85], the EC50 on human RORγ and at mouse RORγ was greater than 3 µM each time.
`COc1cccc(C)c1NC(=O)CCc1nnc(CCC(C)C)n1C1CC1` [Example F-86]: the EC50 at human RORγ and on mouse RORγ was greater than 3 µM throughout.
Turning to `Cc1c(CO)cccc1NC(=O)CCc1nnc(CCC(C)C)n1C1CC1` [Example F-87], the EC50 on human RORγ and on mouse RORγ was greater than 3 µM throughout.
In the case of `Cc1cc(CO)ccc1NC(=O)CCc1nnc(CCC(C)C)n1C1CC1` [Example F-88], the 50% effective concentration (EC50) on human RORγ and at mouse RORγ was greater than 3 µM each time.
With `Cc1cnccc1NC(=O)CCc1nnc(CCC(C)C)n1C1CC1` [Example F-89], the EC50 at human RORγ and on mouse RORγ was greater than 3 µM throughout.
On to `Cc1ccncc1NC(=O)CCc1nnc(CCC(C)C)n1C1CC1` [Example F-90], for which the EC50 on human RORγ and on mouse RORγ was greater than 3 µM in each case.
In the case of `Cc1ncccc1NC(=O)CCc1nnc(CCC(C)C)n1C1CC1` [Example F-91], the concentration giving a half-maximal response (EC50) at human RORγ and at mouse RORγ was greater than 3 µM each time.
On to `COc1ccc(C)c(NC(=O)CCc2nnc(CCC(C)C)n2C2CC2)c1` [Example F-92], for which the EC50 at human RORγ and on mouse RORγ was greater than 3 µM throughout.
For `CC(C)CCc1nnc(CCC(=O)Nc2ccccc2Cl)n1C1CC1` [Example F-93], the EC50 at human RORγ and at mouse RORγ was greater than 3 µM throughout.
With `Cc1c(Cl)cccc1NC(=O)CCc1nnc(CCC2CCCCC2)n1C1CC1` [Example F-94], the EC50 at human RORγ and at mouse RORγ was less than 3 µM throughout.
Consider `Cc1ccc(NC(=O)CCc2nnc(CCC3CCCCC3)n2C2CC2)c(C)c1` [Example F-95], for which the EC50 at human RORγ and on mouse RORγ was less than 3 µM in each case.
Consider `Cc1ccc(NC(=O)CCc2nnc(CO)n2C2CC2)c(C)c1` [Example F-96], for which the EC50 at human RORγ and at mouse RORγ was greater than 3 µM in each case.
Regarding `Cc1ccc(NC(=O)CCc2nnc(COC(C)(C)C)n2C2CC2)c(C)c1` [Example F-97], the EC50 on human RORγ and at mouse RORγ was greater than 3 µM in each case.
Regarding `Cc1c(NC(=O)CCc2nnc(CCC(C)C)n2C2CC2)cccc1C(F)(F)F` [Example F-99], the EC50 at human RORγ was greater than 3 µM; on mouse RORγ, less than 3 µM.
As for `CC(C)CCc1nnc(CCC(=O)Nc2cccc(Cl)c2F)n1C1CC1` [Example F-100], the EC50 on human RORγ and at mouse RORγ was greater than 3 µM throughout.
For the compound `Cc1c(F)cccc1NC(=O)CCc1nnc(CCC(C)C)n1C1CC1` [Example F-101], the EC50 at human RORγ and at mouse RORγ was greater than 3 µM in each case.
`CC(C)CCc1nnc(CCC(=O)NC2CCCCC2C)n1C1CC1` (stereo not drawn) [Example F-102]: the EC50 at human RORγ and at mouse RORγ was greater than 3 µM throughout.
For the compound `CC(C)CCc1nnc(CCC(=O)NC[C@H](O)c2ccccc2)n1C1CC1` [Example F-103], the EC50 at human RORγ and on mouse RORγ was greater than 3 µM throughout.
As to `Cc1cccc(O)c1NC(=O)CCc1nnc(CCC(C)C)n1C1CC1` [Example F-104], the EC50 on human RORγ and at mouse RORγ was greater than 3 µM each time.
Regarding `CCCCc1nnc(CCC(=O)Nc2cccc(Cl)c2C)n1C1CC1` [Example F-105], the EC50 at human RORγ and on mouse RORγ was greater than 3 µM each time.
Take `Cc1noc(NC(=O)CCc2nnc(CCC(C)C)n2C2CC2)c1C` [Example F-106]: the EC50 on human RORγ and at mouse RORγ was greater than 3 µM in each case.
As to `Cc1c(Cl)cccc1NC(=O)CCc1nnc(CC(C)C)n1C1CC1` [Example F-107], the EC50 on human RORγ and on mouse RORγ was greater than 3 µM throughout.
`COc1ccc(CNC(=O)CCc2nnc(CCC(C)C)n2C2CC2)c(C)c1` [Example F-108]: the EC50 on human RORγ and on mouse RORγ was greater than 3 µM each time.
Turning to `CC(C)CCc1nnc(CCC(=O)Nc2cc(F)cc(Cl)c2)n1C1CC1` [Example F-109], the EC50 on human RORγ and at mouse RORγ was greater than 3 µM throughout.
As to `Cc1cccnc1CNC(=O)CCc1nnc(CCC(C)C)n1C1CC1` [Example F-110], the EC50 on human RORγ and on mouse RORγ was greater than 3 µM throughout.
Consider `Cc1cnccc1CNC(=O)CCc1nnc(CCC(C)C)n1C1CC1` [Example F-111], for which the EC50 at human RORγ and at mouse RORγ was greater than 3 µM each time.
Turning to `Cc1ccc(NC(=O)CCc2nnc(CCC3CCCCC3)n2C2CCC2)c(C)c1` [Example F-112], the EC50 at human RORγ is greater than 3 µM; on mouse RORγ it was less than 3 µM.
With `Cc1cc(O)ccc1CNC(=O)CCc1nnc(CCC(C)C)n1C1CC1` [Example F-114], the EC50 at human RORγ and at mouse RORγ was greater than 3 µM in each case.
Turning to `CC(C)CCc1nnc(CCC(=O)NCc2cccc3[nH]cnc23)n1C1CC1` [Example F-115], the concentration for a half-maximal effect (EC50) on human RORγ and at mouse RORγ was greater than 3 µM each time.
In the case of `Cc1ccccc1CCNC(=O)CCc1nnc(CCC(C)C)n1C1CC1` [Example F-116], the concentration for a half-maximal effect (EC50) on human RORγ and on mouse RORγ was greater than 3 µM in each case.
Consider `Cc1cccc(CNC(=O)CCc2nnc(CCC(C)C)n2C2CC2)c1C` [Example F-118], for which the EC50 at human RORγ and on mouse RORγ was greater than 3 µM throughout.
Take `Cc1ccc(CNC(=O)CCc2nnc(CCC(C)C)n2C2CC2)c(C)c1` [Example F-119]: the EC50 on human RORγ and on mouse RORγ was less than 3 µM in each case.
Take `Cc1c(Cl)cccc1NC(=O)CCc1nnc(CCCC(C)C)n1C1CC1` [Example F-120]: the EC50 on human RORγ and on mouse RORγ was less than 3 µM each time.
For the compound `CC(C)CCc1nnc(CCC(=O)NCc2ccccc2Cl)n1C1CC1` [Example F-121], the EC50 on human RORγ and on mouse RORγ was greater than 3 µM each time.
Consider `CC(C)CCc1nnc(CCC(=O)NCc2ccc(Cl)cc2)n1C1CC1` [Example F-122], for which the EC50 at human RORγ and at mouse RORγ was greater than 3 µM throughout.
`Cc1c(Cl)cccc1CNC(=O)CCc1nnc(CCC(C)C)n1C1CC1` [Example F-123]: the EC50 at human RORγ and at mouse RORγ was greater than 3 µM throughout.
Regarding `CCc1ccc(CNC(=O)CCc2nnc(CCC(C)C)n2C2CC2)cc1` [Example F-124], the EC50 at human RORγ and at mouse RORγ was greater than 3 µM in each case.
Consider `CCc1ccccc1CNC(=O)CCc1nnc(CCC(C)C)n1C1CC1` [Example F-125], for which the EC50 at human RORγ and at mouse RORγ was greater than 3 µM in each case.
Take `Cc1c(F)cccc1CNC(=O)CCc1nnc(CCC(C)C)n1C1CC1` [Example F-126]: the EC50 at human RORγ and on mouse RORγ was greater than 3 µM each time.
Regarding `COc1cccc(CNC(=O)CCc2nnc(CCC(C)C)n2C2CC2)c1C` [Example F-127], the EC50 on human RORγ and on mouse RORγ was greater than 3 µM in each case.
As to `CC(C)CCc1nnc(CCC(=O)NCc2cccc3[nH]ncc23)n1C1CC1` [Example F-128], the EC50 on human RORγ and at mouse RORγ was greater than 3 µM throughout.
With `CC(C)CCc1nnc(CCC(=O)NCc2ccc(C(F)(F)F)cc2)n1C1CC1` [Example F-129], the EC50 at human RORγ and at mouse RORγ was greater than 3 µM in each case.
On to `CC(C)CCc1nnc(CCC(=O)NCc2ccccc2C(F)(F)F)n1C1CC1` [Example F-130], for which the EC50 on human RORγ and at mouse RORγ was greater than 3 µM each time.
With `Cc1ccc(Cl)cc1NC(=O)CCc1nnc(CCC(C)C)n1C1CC1` [Example F-131], the EC50 at human RORγ and at mouse RORγ was greater than 3 µM each time.
For the compound `CCc1cccc(NC(=O)CCc2nnc(CCC(C)C)n2C2CC2)c1` [Example F-132], the EC50 on human RORγ and on mouse RORγ was greater than 3 µM throughout.
In the case of `Cc1c(O)cccc1CNC(=O)CCc1nnc(CCC(C)C)n1C1CC1` [Example F-133], the EC50 at human RORγ and at mouse RORγ was greater than 3 µM in each case.
For `CC(C)CCc1nnc(CCC(=O)Nc2cnc3ccccn23)n1C1CC1` [Example F-134], the EC50 at human RORγ and on mouse RORγ was greater than 3 µM throughout.
Turning to `Cc1c(Cl)cccc1NC(=O)CCc1nnc(C2CCCC(C)C2)n1C1CC1` (stereo not drawn) [Example F-135], the EC50 on human RORγ was greater than 3 µM; on mouse RORγ, less than 3 µM.
